Test results taken from PubChem BioAssay (NCI).
Values joined by “and” are separate entries in the source; they are usually repeats but may differ in a detail not shown here. Equal values may be shown once.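 96-well plates; 48 h exposure; 5 concentrations. Endpoints by linear interpolation between flanking doses. Not reached: highest tested concentration assigned. At the GI50, growth is halved. TGI is the concentration that stops growth completely.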

Key:
Assay in all cases: growth of human tumour cells (NCI), 48 h
[1] = system: TK-10 renal
[2] = system: SW-620 colon
[3] = system: MOLT-4 leukemia
[4] = system: HCC-2998 colon
[5] = system: SR leukemia
[6] = system: ACHN renal
[7] = system: HT29 colon
[8] = system: CCRF-CEM leukemia
[9] = system: MDA-MB-231 breast
[10] = system: SF-268 CNS
[11] = system: COLO 205 colon
[12] = system: HL-60(TB) leukemia
[13] = system: MCF7 breast
[14] = system: OVCAR-4 ovarian
[15] = system: CAKI-1 renal
[16] = system: SK-MEL-2 melanoma
[17] = system: K-562 leukemia
[18] = system: RXF 393 renal

Structure (SMILES)	TGI [1] [µM]	TGI [2] [µM]	TGI [3] [µM]	TGI [4]	TGI [5] [µM]	TGI [6] [µM]	TGI [7] [µM]	TGI [8] [µM]	TGI [9] [µM]	TGI [10] [µM]	TGI [11] [µM]	TGI [12] [µM]	TGI [13] [µM]	TGI [14] [µM]	TGI [15] [µM]	TGI [16] [µM]	TGI [17] [µM]	TGI [18] [µM]	GI50 [4]
c1ccc(NC2(c3nnnn3C3CCCCC3)CCNCC2)cc1	33.3	43.4	43.5	27.3 µM	36.1	52.6	35.8	55.4	> 100	> 100	40.9	31.5	35.1	> 100					
CSc1ccc(C=C2N=C(c3ccccc3)N(c3cc(C(=O)c4ccccc4)ccc3N3C(=O)/C(=C/c4ccc(SC)cc4)N=C3c3ccccc3)C2=O)cc1	> 100	> 100	> 100	> 100 µM		> 100	> 100	62.4	> 100	> 100	> 100	> 100	> 100	> 100	> 100	> 100	> 100		
O=c1[nH]nc(Cc2ccc(Cl)cc2)n1Nc1ccccc1	> 100	> 100	> 100	> 100 µM		> 100	> 100	> 100	> 100		> 100		> 100	> 100	> 100	> 100	> 100		
c1ccc2c(c1)SCCCSCCCS2	> 100	> 100	> 100	> 100 µM	> 100			> 100	> 100	> 100	> 100	74.5	> 100	> 100			> 100		
CCOC(=O)/C(C#N)=N\Nc1ccc(-n2c(C)nc3ccc(Br)cc3c2=O)cc1	> 100	> 100	> 100		> 100	> 100	> 100	> 100	> 100	> 100	> 100	> 100	> 100		> 100	> 100	> 100		
O=C(O)C1CCCCN1CCc1c[nH]c2ccccc12 (configuration not stated)	> 100	> 100	> 100	> 100 µM		> 100	> 100	> 100	> 100	> 100	> 100	> 100	> 100	> 100	> 100	> 100	> 100	> 100	
O=C1NCC2=C1CCC1c3ccccc3CCN21 (configuration not stated)	> 100	> 100	> 100	> 100 µM	> 100	> 100	> 100	> 100		> 100	> 100	> 100			> 100	> 100		> 100	
CC(C)=CCc1c(O)c(CC=C(C)C)c2oc3c(c(=O)c2c1O)C(C=C(C)C)Oc1cc(O)ccc1-3 (configuration not stated)	13.3	18.1	16.6		8.29	15.4	23.1	7.68	25.6	28	30.3	29.8	17.5	23.3	19.4	7.93	16.6		
COc1cc(-c2c(C(C)=O)c(-c3ccccc3)n(C3OC(COC(C)=O)C(OC(C)=O)C(OC(C)=O)C3OC(C)=O)c(=S)c2C#N)ccc1O (configuration not stated)		> 100	> 100	> 100 µM and 79.5 µM	> 100	> 100	> 100	> 100		> 100	> 100		> 100	> 100	> 100		> 100	> 100	> 100 µM and 29.6 µM
O=C(CN1c2ccccc2Sc2ccccc21)n1cnc2ccccc21	> 100	> 100	> 100			> 100	> 100	> 100	> 100	> 100	> 100	> 100	> 100	> 100		> 100	> 100	> 100	
CCC/C(Cl)=N/OC(=O)Nc1cccc(F)c1	> 19.7	2.98	5.55	30.4 µM		2.88	9.35		27.7	> 54.4	3.98		8.85	25.4	7.77	33.4	8.87	20.5	
NC(=S)NS(=O)(=O)c1ccc(F)cc1	> 100	> 100	> 100	> 100 µM		> 100	> 100	> 100	> 100	> 100	> 100	> 100		> 100	> 100	> 100	> 100	> 100	
C[C@H]1ON2CCC[C@@H]2[C@@H]1C(=O)N1C2CC3CCC2(CS1(=O)=O)C3(C)C (some centres not stated)	> 100	> 100		> 100 µM		> 100	> 100	> 100	> 100	> 100	> 100	26.6	> 100	> 100	> 100	> 100	> 100	> 100	
COc1ccc2[nH]c3c(c2c1)CCc1ccccc1-3	> 100	> 100	> 100	> 100 µM	> 100	> 100	> 100	> 100	76.1	> 100	> 100		> 100	> 100	> 100	> 100	> 100		
